# Data from PubChem BioAssay (NCI).
#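 96-well plates; 48 h exposure; 5 concentrations. Endpoints by linear interpolation between flanking doses. Not reached: highest tested concentration assigned. GI50 = concentration required for 50% inhibition of growth. TGI denotes the concentration required for complete inhibition of growth.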
# Key:
# Assay in all cases: inhibition of tumour cell growth, NCI panel, 48 h
# CAKI-1 renal = tested on: CAKI-1 renal
# SF-539 CNS = tested on: SF-539 CNS
# RPMI-8226 leukemia = tested on: RPMI-8226 leukemia
# HOP-62 NSCLC = tested on: HOP-62 NSCLC
# OVCAR-3 ovarian = tested on: OVCAR-3 ovarian
# HCT-15 colon = tested on: HCT-15 colon
# TK-10 renal = tested on: TK-10 renal
# BT-549 breast = tested on: BT-549 breast
# OVCAR-5 ovarian = tested on: OVCAR-5 ovarian
# UACC-257 melanoma = tested on: UACC-257 melanoma
# HCC-2998 colon = tested on: HCC-2998 colon
# SW-620 colon = tested on: SW-620 colon
# SK-MEL-28 melanoma = tested on: SK-MEL-28 melanoma
# NCI-H23 lung = tested on: NCI-H23 lung
# MOLT-4 leukemia = tested on: MOLT-4 leukemia
# RXF 393 renal = tested on: RXF 393 renal
# SR leukemia = tested on: SR leukemia
# SNB-75 CNS = tested on: SNB-75 CNS
# LOX IMVI melanoma = tested on: LOX IMVI melanoma
# DU-145 prostate = tested on: DU-145 prostate
# SN12C renal = tested on: SN12C renal
# SF-295 CNS = tested on: SF-295 CNS
# KM12 colon = tested on: KM12 colon
# UO-31 renal = tested on: UO-31 renal
# MALME-3M melanoma = tested on: MALME-3M melanoma
# HS 578T breast = tested on: HS 578T breast
# NCI-H460 lung = tested on: NCI-H460 lung
# OVCAR-4 ovarian = tested on: OVCAR-4 ovarian
# M14 melanoma = tested on: M14 melanoma
# SK-MEL-5 melanoma = tested on: SK-MEL-5 melanoma
# UACC-62 melanoma = tested on: UACC-62 melanoma
# MDA-MB-231 breast = tested on: MDA-MB-231 breast
# T-47D breast = tested on: T-47D breast
# SNB-19 CNS = tested on: SNB-19 CNS
# A498 renal = tested on: A498 renal
# ACHN renal = tested on: ACHN renal
# MCF7 breast = tested on: MCF7 breast
# SK-MEL-2 melanoma = tested on: SK-MEL-2 melanoma
# EKVX NSCLC = tested on: EKVX NSCLC
# NCI-H522 lung = tested on: NCI-H522 lung
# NCI/ADR-RES ovarian = tested on: NCI/ADR-RES ovarian
# IGROV1 ovarian = tested on: IGROV1 ovarian
# OVCAR-8 ovarian = tested on: OVCAR-8 ovarian
# HOP-92 NSCLC = tested on: HOP-92 NSCLC
# 786-0 renal = tested on: 786-0 renal
# SF-268 CNS = tested on: SF-268 CNS
# CCRF-CEM leukemia = tested on: CCRF-CEM leukemia
# MDA-MB-435 = tested on: MDA-MB-435
structure (smiles),measurement,setting,value
CN1CCN(CCOc2ccc(-c3cnc4c(-c5ccccc5F)cnn4c3)cc2)CC1,GI50,CAKI-1 renal,1560 nM
same,TGI,CAKI-1 renal,2900 nM
same,GI50,SF-539 CNS,1590 nM
same,TGI,SF-539 CNS,2960 nM
same,GI50,RPMI-8226 leukemia,1570 nM
same,TGI,RPMI-8226 leukemia,5440 nM
same,GI50,HOP-62 NSCLC,1700 nM
same,TGI,HOP-62 NSCLC,3540 nM
same,GI50,OVCAR-3 ovarian,1810 nM
same,TGI,OVCAR-3 ovarian,4020 nM
same,GI50,HCT-15 colon,1250 nM
same,TGI,HCT-15 colon,2630 nM
same,GI50,TK-10 renal,2090 nM
same,TGI,TK-10 renal,3900 nM
same,GI50,BT-549 breast,1900 nM
same,TGI,BT-549 breast,3770 nM
same,GI50,OVCAR-5 ovarian,1720 nM
same,TGI,OVCAR-5 ovarian,3230 nM
same,GI50,UACC-257 melanoma,1870 nM
same,TGI,UACC-257 melanoma,3410 nM
same,GI50,HCC-2998 colon,1730 nM
same,TGI,HCC-2998 colon,3250 nM
same,GI50,SW-620 colon,1770 nM
same,TGI,SW-620 colon,3260 nM
same,GI50,SK-MEL-28 melanoma,1700 nM
same,TGI,SK-MEL-28 melanoma,3070 nM
same,GI50,NCI-H23 lung,1700 nM
same,TGI,NCI-H23 lung,3190 nM
same,GI50,MOLT-4 leukemia,1790 nM
same,TGI,MOLT-4 leukemia,4360 nM
same,GI50,RXF 393 renal,1720 nM
same,TGI,RXF 393 renal,3290 nM
same,GI50,SR leukemia,2590 nM
same,TGI,SR leukemia,> 100000 nM
same,GI50,SNB-75 CNS,1350 nM
same,TGI,SNB-75 CNS,2660 nM
same,GI50,LOX IMVI melanoma,1810 nM
same,TGI,LOX IMVI melanoma,3270 nM
same,GI50,DU-145 prostate,1650 nM
same,TGI,DU-145 prostate,3070 nM
same,GI50,SN12C renal,1780 nM
same,TGI,SN12C renal,3600 nM
same,GI50,SF-295 CNS,1760 nM
same,TGI,SF-295 CNS,3200 nM
same,GI50,KM12 colon,647 nM
same,TGI,KM12 colon,2120 nM
same,GI50,UO-31 renal,1330 nM
same,TGI,UO-31 renal,2690 nM
same,GI50,MALME-3M melanoma,1560 nM
same,TGI,MALME-3M melanoma,2950 nM
same,GI50,HS 578T breast,2000 nM
same,TGI,HS 578T breast,5220 nM
same,GI50,NCI-H460 lung,1630 nM
same,TGI,NCI-H460 lung,3050 nM
same,GI50,OVCAR-4 ovarian,1550 nM
same,TGI,OVCAR-4 ovarian,4490 nM
same,GI50,M14 melanoma,1820 nM
same,TGI,M14 melanoma,3520 nM
same,GI50,SK-MEL-5 melanoma,1630 nM
same,TGI,SK-MEL-5 melanoma,3000 nM
same,GI50,UACC-62 melanoma,1690 nM
same,TGI,UACC-62 melanoma,3170 nM
same,GI50,MDA-MB-231 breast,1540 nM
same,TGI,MDA-MB-231 breast,3080 nM
same,GI50,T-47D breast,1380 nM
same,TGI,T-47D breast,3930 nM
same,GI50,SNB-19 CNS,1730 nM
same,TGI,SNB-19 CNS,3260 nM
same,GI50,A498 renal,1430 nM
same,TGI,A498 renal,2900 nM
same,GI50,ACHN renal,1610 nM
same,TGI,ACHN renal,2960 nM
same,GI50,MCF7 breast,1320 nM
same,TGI,MCF7 breast,2970 nM
same,GI50,SK-MEL-2 melanoma,1860 nM
same,TGI,SK-MEL-2 melanoma,3570 nM
same,GI50,EKVX NSCLC,1650 nM
same,TGI,EKVX NSCLC,3370 nM
same,GI50,NCI-H522 lung,1690 nM
same,TGI,NCI-H522 lung,3390 nM
same,GI50,NCI/ADR-RES ovarian,2400 nM
same,TGI,NCI/ADR-RES ovarian,6420 nM
same,GI50,IGROV1 ovarian,1810 nM
same,TGI,IGROV1 ovarian,3580 nM
same,GI50,OVCAR-8 ovarian,2920 nM
same,TGI,OVCAR-8 ovarian,10600 nM
same,GI50,HOP-92 NSCLC,1310 nM
same,TGI,HOP-92 NSCLC,3150 nM
same,GI50,786-0 renal,1780 nM
same,TGI,786-0 renal,3290 nM
same,GI50,SF-268 CNS,2040 nM
same,TGI,SF-268 CNS,4730 nM
same,GI50,CCRF-CEM leukemia,1850 nM
same,TGI,CCRF-CEM leukemia,4770 nM
same,GI50,MDA-MB-435,1700 nM
same,TGI,MDA-MB-435,3100 nM
